Results on eight molecules are retold here after PubChem BioAssay (NCI).

“And” between values parts separate entries of the source, which are not always exact repeats. Equal values may be shown once.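 Values below derive from 48-hour exposures of cells grown in 96-well plates, with endpoints linearly interpolated between the two concentrations bracketing the appropriate inhibition level. Abbreviation: GI50, concentration required for 50% inhibition of growth. The concentration for full growth arrest is given as TGI.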 Where only a bound is given, the exact number is not on record here.

Among the test systems are SNB-19 CNS; TK-10 renal; DU-145 prostate; A498 renal; HOP-92 NSCLC; RXF 393 renal; MALME-3M melanoma; OVCAR-8 ovarian; HCT-15 colon; SN12C renal.
Holding throughout (experiment): growth of human tumour cells (NCI), 48 h

For the molecule `Clc1ccc(Cl)c(N/N=C\c2c[nH]c3ccccc23)c1`, the GI50 is 13.2 µM in the assay on SNB-19 CNS; 12 µM in the assay on TK-10 renal; 10.7 µM in the assay with DU-145 prostate; 14.5 µM in the assay with A498 renal; 1.13 µM with HOP-92 NSCLC; 10.3 µM in the assay with RXF 393 renal. In addition, the GI50 in the assay with MALME-3M melanoma was 20.3 µM; in the assay with OVCAR-8 ovarian, 14.9 µM; in the assay on HCT-15 colon, 8.81 µM; with SN12C renal, 7.15 µM. Moreover, the TGI came out at 29.4 µM in the assay with SNB-19 CNS; 26.8 µM with TK-10 renal; 22.6 µM in the assay with DU-145 prostate; 29.6 µM with A498 renal; 8.37 µM in the assay with HOP-92 NSCLC; 24.8 µM in the assay on RXF 393 renal. The TGI was 39.8 µM in the assay on MALME-3M melanoma, 29.4 µM in the assay with OVCAR-8 ovarian, greater than 100 µM in the assay on HCT-15 colon and 22.3 µM in the assay on SN12C renal.

In the case of `CCCCc1ccc2nc(NC(=O)OC)[nH]c2c1`, the GI50 is 0.0487 µM in the assay on SNB-19 CNS; 0.325 µM in the assay on TK-10 renal; 0.0406 µM in the assay with DU-145 prostate; 0.04 µM with A498 renal; 0.697 µM in the assay with HOP-92 NSCLC; 0.0929 µM with RXF 393 renal. Moreover, the GI50 with MALME-3M melanoma was 0.0526 µM; in the assay on OVCAR-8 ovarian, 0.0837 µM; in the assay with HCT-15 colon, 0.0434 µM; with SN12C renal, 0.0832 µM. The TGI in the assay on SNB-19 CNS was greater than 100 µM; in the assay on TK-10 renal it was 29.9 µM; in the assay on DU-145 prostate, 0.278 µM; in the assay with A498 renal, 0.996 µM; in the assay with HOP-92 NSCLC, greater than 63 µM; in the assay with RXF 393 renal, 20.1 µM. Besides, the TGI in the assay with MALME-3M melanoma is 23.7 µM; in the assay with OVCAR-8 ovarian it was greater than 52.9 µM; in the assay on HCT-15 colon it was greater than 95.2 µM; with SN12C renal it was greater than 60.4 µM.

`COc1ccc(CN2CCc3c(Cl)nc(N)nc3C2=O)c(OC)c1`: the GI50 in the assay on SNB-19 CNS was 15.8 µM; in the assay on TK-10 renal it was 33.1 µM; with DU-145 prostate it was 18.2 µM; in the assay with A498 renal, 23.7 µM; with HOP-92 NSCLC, 14.5 µM; with RXF 393 renal, 22.7 µM. In addition, the GI50 in the assay with MALME-3M melanoma was 15.8 µM; with OVCAR-8 ovarian it was 26.9 µM; in the assay on HCT-15 colon it was 10.4 µM; in the assay with SN12C renal it was 14.9 µM. For the same molecule, the TGI with SNB-19 CNS was determined as 33.3 µM; in the assay on TK-10 renal it was 99.3 µM; in the assay with DU-145 prostate it was 40.3 µM; in the assay on A498 renal, 81.5 µM; in the assay with HOP-92 NSCLC it was 36 µM; with RXF 393 renal, 52.9 µM. Also, the TGI with MALME-3M melanoma is 44.2 µM; with OVCAR-8 ovarian it was greater than 100 µM; with HCT-15 colon, 24.3 µM; in the assay on SN12C renal it was 31.5 µM.

For the molecule `O=c1c(Cl)nsnc1Cl`, the TGI worked out at 49.1 µM in the assay with SNB-19 CNS; 7.93 µM with TK-10 renal; 31.5 µM in the assay on DU-145 prostate; 28.8 µM in the assay on A498 renal; 13 µM in the assay on HOP-92 NSCLC; 24.8 µM in the assay on RXF 393 renal. Also, the TGI with MALME-3M melanoma is 84.5 µM; in the assay on OVCAR-8 ovarian, greater than 91.6 µM; with HCT-15 colon, 51.1 µM; with SN12C renal, 48.4 µM.

Regarding `FC(F)(F)c1ccc2nc(-c3nc(-c4ccccc4)n4ccccc34)[nH]c2c1`, the GI50 in the assay on SNB-19 CNS was 6.44 µM; with TK-10 renal, 2.85 µM; in the assay with DU-145 prostate it was 7.5 µM; in the assay with A498 renal, 1.69 µM; with HOP-92 NSCLC, 3.66 µM; in the assay with RXF 393 renal it was 2.64 µM. In addition, the GI50 with MALME-3M melanoma is 2.71 µM; with OVCAR-8 ovarian, 2.7 µM; in the assay on HCT-15 colon, 3.5 µM; in the assay with SN12C renal, 2.59 µM. For the same molecule, the TGI is 20.8 µM in the assay on SNB-19 CNS; 5.32 µM in the assay on TK-10 renal; 30.3 µM with DU-145 prostate; 5.85 µM in the assay on A498 renal; 17.4 µM in the assay with HOP-92 NSCLC; 6.98 µM with RXF 393 renal. Besides, the TGI came out at 9.02 µM with MALME-3M melanoma, 7.68 µM in the assay on OVCAR-8 ovarian, 22 µM in the assay with HCT-15 colon and 8.56 µM in the assay with SN12C renal.

As for `O=C(Nc1ccc(Cl)c(Cl)c1)Nc1ccc(Cl)c([N+](=O)[O-])c1`, the GI50 is 1.38 µM in the assay with SNB-19 CNS; 1.42 µM in the assay on TK-10 renal; 1.2 µM with DU-145 prostate; 1.37 µM in the assay with A498 renal; 0.66 µM in the assay on HOP-92 NSCLC; 2.95 µM in the assay on RXF 393 renal. In addition, the GI50 in the assay with MALME-3M melanoma is 0.915 µM; in the assay with OVCAR-8 ovarian, 1.44 µM; with HCT-15 colon, 0.845 µM; with SN12C renal it was 1.04 µM. Also, the TGI is 5.29 µM in the assay on SNB-19 CNS; 6.9 µM in the assay on TK-10 renal; greater than 25 µM with DU-145 prostate; 4.47 µM with A498 renal; 2.07 µM in the assay with HOP-92 NSCLC; 9.29 µM in the assay on RXF 393 renal. The TGI was found to be 4.96 µM with MALME-3M melanoma, 8.91 µM in the assay with OVCAR-8 ovarian, 3.56 µM in the assay on HCT-15 colon and 3.94 µM in the assay with SN12C renal.

On to `Cc1cc(O)c2c(c1)C[C@@H](O)C1=C2C(=O)c2c(O)ccc(OC3CC(O)C(OC4CC(OC5CCC(OC6CC(O)C(OC7CC(OC8CCC(O)C(C)O8)C(O)C(C)O7)C(C)O6)C(C)O5)C(O)C(C)O4)C(C)O3)c2C1=O` (stereo not given in full), for which the GI50 with SNB-19 CNS is 1.41 µM and 1.24 µM; in the assay on TK-10 renal it was 2.13 µM and 2.93 µM; with DU-145 prostate it was 2.03 µM and 1.37 µM; in the assay on A498 renal, 2.72 µM and 2.47 µM; in the assay with HOP-92 NSCLC it was 0.3 µM; in the assay with RXF 393 renal, 0.302 µM and 0.29 µM. Moreover, the GI50 was 1 µM and 0.197 µM in the assay on MALME-3M melanoma; 0.364 µM with OVCAR-8 ovarian; 0.231 µM in the assay with HCT-15 colon; 0.307 µM and 1.94 µM in the assay on SN12C renal. The TGI with SNB-19 CNS is 0.335 µM and 2.88 µM and 2.67 µM; in the assay with DU-145 prostate, 0.492 µM and 3.45 µM and 2.69 µM; in the assay on HOP-92 NSCLC, 0.316 µM and 0.684 µM; with RXF 393 renal, 0.108 µM and 0.535 µM and 0.751 µM; in the assay with HCT-15 colon it was 0.148 µM and 0.488 µM.

For the molecule `Cc1cc2c(-c3nc4ccccc4[nH]3)c(O)c(O)cc2c(O)c1-c1c(C)cc2c(-c3nc4ccccc4[nH]3)c(O)c(O)cc2c1O`, the GI50 is 0.0202 µM with SNB-19 CNS; 0.0386 µM in the assay on TK-10 renal; 0.0205 µM in the assay on DU-145 prostate; 0.00875 µM in the assay with A498 renal; 0.0232 µM with HOP-92 NSCLC; 0.0434 µM in the assay with RXF 393 renal. The GI50 was 0.0321 µM in the assay with MALME-3M melanoma, 0.0664 µM with OVCAR-8 ovarian, 0.0156 µM in the assay on HCT-15 colon and 0.0272 µM with SN12C renal. Further, the TGI with SNB-19 CNS was 9.62 µM; with TK-10 renal it was greater than 42.1 µM; with DU-145 prostate it was 10.1 µM; in the assay on A498 renal it was 0.0374 µM; in the assay on HOP-92 NSCLC, 1.54 µM; in the assay with RXF 393 renal, 3.56 µM. The TGI was 2.26 µM in the assay on MALME-3M melanoma, greater than 50 µM in the assay with OVCAR-8 ovarian, 19.8 µM with HCT-15 colon and 8.08 µM in the assay with SN12C renal.
